Experimental data from ChEMBL document CHEMBL4382269, “Discovery of Potent, Efficient, and Selective Inhibitors of Phosphoinositide 3-Kinase δ through a Deconstruction and Regrowth Approach” (J Med Chem, 2018).
pIC50: −log10 of the molar value.

Experiments:
[1] = target: Phosphatidylinositol 4,5-bisphosphate 3-kinase catalytic subunit alpha isoform (Homo sapiens, UniProt P42336); assay: Inhibition of PI3Kalpha (unknown origin) using PIP2 as substrate preincubated for 15 mins followed by substrate addition measured after 60 mins by HTRF method
[2] = target: Phosphatidylinositol 4,5-bisphosphate 3-kinase catalytic subunit beta isoform (Homo sapiens, UniProt P42338); assay: Inhibition of PI3Kbeta (unknown origin) using PIP2 as substrate preincubated for 15 mins followed by substrate addition measured after 60 mins by HTRF method
[3] = target: T1, Phosphatidylinositol 4,5-bisphosphate 3-kinase catalytic subunit delta isoform (Homo sapiens, UniProt O00329); assay: Inhibition of PI3Kdelta (unknown origin) using PIP2 as substrate preincubated for 15 mins followed by substrate addition measured after 60 mins by HTRF method
T1 sequence (O00329 whole entry): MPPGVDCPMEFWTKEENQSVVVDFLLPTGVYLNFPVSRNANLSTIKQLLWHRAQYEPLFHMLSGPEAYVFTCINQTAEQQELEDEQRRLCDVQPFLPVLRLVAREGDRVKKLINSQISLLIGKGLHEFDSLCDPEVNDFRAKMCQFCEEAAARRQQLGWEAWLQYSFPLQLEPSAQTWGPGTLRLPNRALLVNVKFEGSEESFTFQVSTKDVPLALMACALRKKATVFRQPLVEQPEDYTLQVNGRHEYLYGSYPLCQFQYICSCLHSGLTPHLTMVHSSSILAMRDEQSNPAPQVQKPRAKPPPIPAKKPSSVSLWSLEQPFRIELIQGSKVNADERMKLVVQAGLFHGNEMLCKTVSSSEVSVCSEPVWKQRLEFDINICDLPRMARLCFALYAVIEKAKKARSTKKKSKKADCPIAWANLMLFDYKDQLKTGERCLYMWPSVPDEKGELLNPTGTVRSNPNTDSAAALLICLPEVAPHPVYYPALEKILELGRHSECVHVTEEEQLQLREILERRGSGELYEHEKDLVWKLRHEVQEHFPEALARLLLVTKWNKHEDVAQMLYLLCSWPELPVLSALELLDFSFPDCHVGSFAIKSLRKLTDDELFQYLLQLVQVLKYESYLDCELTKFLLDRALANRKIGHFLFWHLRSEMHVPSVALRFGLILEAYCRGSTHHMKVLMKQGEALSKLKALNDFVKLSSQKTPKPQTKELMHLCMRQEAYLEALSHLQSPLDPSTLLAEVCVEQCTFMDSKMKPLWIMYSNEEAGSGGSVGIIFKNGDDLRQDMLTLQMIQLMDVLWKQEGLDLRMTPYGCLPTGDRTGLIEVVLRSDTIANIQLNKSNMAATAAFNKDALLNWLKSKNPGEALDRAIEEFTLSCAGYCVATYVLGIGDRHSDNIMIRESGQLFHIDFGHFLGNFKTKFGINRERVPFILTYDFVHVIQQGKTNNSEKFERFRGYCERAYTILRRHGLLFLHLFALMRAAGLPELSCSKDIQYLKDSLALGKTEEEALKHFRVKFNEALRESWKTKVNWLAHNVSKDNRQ

[4] = target: Phosphatidylinositol 4,5-bisphosphate 3-kinase catalytic subunit gamma isoform (Homo sapiens, UniProt P48736); assay: Inhibition of PI3Kgamma (unknown origin) using PIP2 as substrate preincubated for 15 mins followed by substrate addition measured after 60 mins by HTRF method
Sequence of Phosphatidylinositol 4,5-bisphosphate 3-kinase catalytic subunit gamma isoform (P48736 whole entry, canonical isoform): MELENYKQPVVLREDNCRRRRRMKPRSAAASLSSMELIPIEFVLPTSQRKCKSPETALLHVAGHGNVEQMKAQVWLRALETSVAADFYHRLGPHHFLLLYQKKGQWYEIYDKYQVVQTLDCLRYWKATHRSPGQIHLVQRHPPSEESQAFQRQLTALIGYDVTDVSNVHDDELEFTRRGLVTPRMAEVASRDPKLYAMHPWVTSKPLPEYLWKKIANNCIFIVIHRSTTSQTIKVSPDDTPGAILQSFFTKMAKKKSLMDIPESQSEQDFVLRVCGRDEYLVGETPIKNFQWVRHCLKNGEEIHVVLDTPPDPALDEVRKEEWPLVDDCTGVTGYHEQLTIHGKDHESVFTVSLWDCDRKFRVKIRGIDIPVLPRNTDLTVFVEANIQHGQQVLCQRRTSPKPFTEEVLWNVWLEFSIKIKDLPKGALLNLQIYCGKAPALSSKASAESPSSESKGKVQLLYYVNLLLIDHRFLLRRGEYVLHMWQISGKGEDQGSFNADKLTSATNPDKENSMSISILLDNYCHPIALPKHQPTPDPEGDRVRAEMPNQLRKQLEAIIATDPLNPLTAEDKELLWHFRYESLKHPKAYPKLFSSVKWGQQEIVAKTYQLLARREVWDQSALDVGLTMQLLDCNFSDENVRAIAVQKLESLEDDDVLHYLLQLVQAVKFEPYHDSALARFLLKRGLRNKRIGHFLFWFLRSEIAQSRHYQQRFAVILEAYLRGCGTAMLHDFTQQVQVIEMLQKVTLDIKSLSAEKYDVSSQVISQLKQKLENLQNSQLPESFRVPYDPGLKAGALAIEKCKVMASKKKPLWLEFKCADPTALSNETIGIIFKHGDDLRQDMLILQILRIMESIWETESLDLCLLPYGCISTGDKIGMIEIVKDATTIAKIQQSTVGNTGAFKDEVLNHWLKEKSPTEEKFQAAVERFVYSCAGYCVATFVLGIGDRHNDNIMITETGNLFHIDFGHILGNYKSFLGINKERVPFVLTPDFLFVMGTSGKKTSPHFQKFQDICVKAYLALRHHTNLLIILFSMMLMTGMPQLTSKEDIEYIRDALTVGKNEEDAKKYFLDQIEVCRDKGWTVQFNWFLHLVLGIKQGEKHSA

Sequence of Phosphatidylinositol 4,5-bisphosphate 3-kinase catalytic subunit alpha isoform (P42336 whole entry, canonical isoform): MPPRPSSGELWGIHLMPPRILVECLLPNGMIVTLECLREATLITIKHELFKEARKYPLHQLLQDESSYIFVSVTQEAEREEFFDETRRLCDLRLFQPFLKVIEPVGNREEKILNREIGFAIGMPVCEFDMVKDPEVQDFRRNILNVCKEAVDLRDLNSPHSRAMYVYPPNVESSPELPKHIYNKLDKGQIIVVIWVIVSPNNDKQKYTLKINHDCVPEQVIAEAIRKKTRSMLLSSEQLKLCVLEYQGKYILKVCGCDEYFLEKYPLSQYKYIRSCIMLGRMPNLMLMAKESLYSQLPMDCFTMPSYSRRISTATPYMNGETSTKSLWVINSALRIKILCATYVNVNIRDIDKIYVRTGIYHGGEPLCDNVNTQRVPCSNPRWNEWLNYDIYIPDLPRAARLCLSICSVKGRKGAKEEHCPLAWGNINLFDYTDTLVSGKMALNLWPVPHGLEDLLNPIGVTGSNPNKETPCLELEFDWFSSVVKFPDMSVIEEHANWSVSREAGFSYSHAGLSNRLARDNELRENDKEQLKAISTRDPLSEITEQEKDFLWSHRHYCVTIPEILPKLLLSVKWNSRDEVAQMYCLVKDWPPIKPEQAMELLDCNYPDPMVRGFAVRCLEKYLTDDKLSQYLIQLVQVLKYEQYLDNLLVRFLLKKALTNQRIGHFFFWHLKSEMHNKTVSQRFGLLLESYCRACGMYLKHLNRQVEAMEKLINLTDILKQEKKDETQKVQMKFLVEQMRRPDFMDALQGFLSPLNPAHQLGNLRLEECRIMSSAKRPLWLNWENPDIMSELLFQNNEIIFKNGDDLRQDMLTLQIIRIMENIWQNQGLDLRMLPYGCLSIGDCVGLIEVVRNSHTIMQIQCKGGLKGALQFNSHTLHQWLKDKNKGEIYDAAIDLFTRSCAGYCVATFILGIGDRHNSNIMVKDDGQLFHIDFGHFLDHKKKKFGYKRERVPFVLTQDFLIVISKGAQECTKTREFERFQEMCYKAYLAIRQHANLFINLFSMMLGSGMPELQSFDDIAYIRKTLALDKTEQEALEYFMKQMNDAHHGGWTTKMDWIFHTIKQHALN
Sequence of Phosphatidylinositol 4,5-bisphosphate 3-kinase catalytic subunit beta isoform (P42338 whole entry, canonical isoform): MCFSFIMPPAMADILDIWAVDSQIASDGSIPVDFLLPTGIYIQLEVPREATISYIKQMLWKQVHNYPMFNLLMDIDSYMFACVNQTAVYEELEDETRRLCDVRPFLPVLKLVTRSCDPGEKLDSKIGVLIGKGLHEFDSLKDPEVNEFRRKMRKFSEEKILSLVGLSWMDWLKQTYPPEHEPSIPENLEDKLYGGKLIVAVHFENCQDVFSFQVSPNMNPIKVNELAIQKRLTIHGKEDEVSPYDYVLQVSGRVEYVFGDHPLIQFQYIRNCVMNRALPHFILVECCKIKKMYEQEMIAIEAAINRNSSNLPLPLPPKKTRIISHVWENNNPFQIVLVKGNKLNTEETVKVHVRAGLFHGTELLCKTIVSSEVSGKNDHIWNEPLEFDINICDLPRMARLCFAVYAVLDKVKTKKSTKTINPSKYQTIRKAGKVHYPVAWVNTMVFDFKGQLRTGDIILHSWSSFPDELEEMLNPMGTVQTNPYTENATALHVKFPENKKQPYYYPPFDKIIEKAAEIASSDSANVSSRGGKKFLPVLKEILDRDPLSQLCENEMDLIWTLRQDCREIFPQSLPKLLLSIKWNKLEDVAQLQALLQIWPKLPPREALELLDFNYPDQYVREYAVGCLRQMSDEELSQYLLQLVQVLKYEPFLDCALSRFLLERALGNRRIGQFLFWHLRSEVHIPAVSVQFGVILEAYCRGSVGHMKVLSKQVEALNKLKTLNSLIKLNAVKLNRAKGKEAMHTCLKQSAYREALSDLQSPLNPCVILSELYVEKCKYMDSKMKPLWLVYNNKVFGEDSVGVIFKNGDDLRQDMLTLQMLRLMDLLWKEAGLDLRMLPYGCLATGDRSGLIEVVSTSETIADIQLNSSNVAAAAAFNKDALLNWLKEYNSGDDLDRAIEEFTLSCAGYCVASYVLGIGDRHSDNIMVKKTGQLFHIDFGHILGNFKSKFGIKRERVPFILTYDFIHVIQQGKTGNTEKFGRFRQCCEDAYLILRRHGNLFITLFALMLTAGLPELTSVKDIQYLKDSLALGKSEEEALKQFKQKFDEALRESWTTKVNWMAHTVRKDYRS

SMILES	pIC50 [1]	pIC50 [2]	pIC50 [3]	pIC50 [4]
CS(=O)(=O)Nc1cc(-c2ccc3ccncc3c2)cnc1Cl	5.60	5.60	6.80	6.10
CS(=O)(=O)Nc1cc(-c2cnc(N)nc2)cnc1Cl	5.80	6.80	6.90	6.70
c1cc(-c2ccc3cn[nH]c3c2)c2cc[nH]c2c1	< 3.80	4.60	5.10	< 3.80

Next, values leading:

pIC50 [1]	pIC50 [2]	pIC50 [3]	pIC50 [4]	SMILES
< 4.30	< 4.30	4.10	< 4.30	c1cc(-c2ccncc2)c2cc[nH]c2c1
6.30	6.90	8.00	6.30	O=S(=O)(Nc1cc(C2=CCOCC2)cnc1Cl)c1ccccc1
< 4.50	4.80	5.40	4.80	c1cc(-c2ccc3ccncc3c2)c2cc[nH]c2c1
